Laboratory results taken from patent US20040010036A1, “N,N, -Substituted s-Aryl-Isothioureas, N,N,N, -Substituted s-Aryl-Isothioureas and combinatorial libraries thereof” (priority 2002, published 2004).

System: Streptococcus pyogenes (ATCC# 97-03 14289)
Assay: Anti-microbial screen (percent inhibition of growth, OD 570 nm)
Assay type: cell-based
Conditions: Spy4H: Streptococcus pyogenes, read at 4 hours, OD 570 nm; Conc 0.1776 mg ml
Outline: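 Frozen stock diluted into 2×THB, compounds in DMSO added at time zero. OD 570 nm read at 0 h to correct for insoluble or coloured compounds and again at 4 h. Percent growth inhibition calculated against blank-corrected solvent controls.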

| Structure (SMILES) | inhibition of growth at 177.6 µg/mL [%] |
| --- | --- |
| Cc1ccc(S/C(=N\c2ccc(F)c(F)c2)N(Cc2cccc(O)c2)CC2CCCCC2)c(C)c1 [Cmpd 1276] | 57.3 |
| COCCN(Cc1cccc(O)c1)/C(=N\c1ccccc1F)Sc1ccc(C)cc1C [compound 107] | 75.8 |
